Results taken from the supplement of paper PMC10307832.

How the values were obtained:
Test in all cases: relative viability (nuclei count vs DMSO), 5 days (fraction); higher = more cells survive
Erlotinib + Foretinib = compound: C#Cc1cccc(Nc2ncnc3cc(OCCOC)c(OCCOC)cc23)c1 [Erlotinib] + COc1cc2c(Oc3ccc(NC(=O)C4(C(=O)Nc5ccc(F)cc5)CC4)cc3F)ccnc2cc1OCCCN1CCOCC1 [Foretinib] (partner 0.25 µM)
Outline: (§1)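 Relative viability was taken as the ratio of nuclei in treated wells to nuclei in vehicle wells. Lung cancer cell lines in 1536-well plates received compounds by pin tool one day after seeding, either one drug alone or a fixed anchor-drug dose plus five library-drug doses (not always all listed) in √10 steps. Nuclei were counted on 4× images after 5 days of treatment, and values are medians of duplicate plates.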

AT9283 + Luminespib = compound: O=C(Nc1c[nH]nc1-c1nc2ccc(CN3CCOCC3)cc2[nH]1)NC1CC1 [AT9283] + CCNC(=O)c1noc(-c2cc(C(C)C)c(O)cc2O)c1-c1ccc(CN2CCOCC2)cc1 [Luminespib] (partner 0.01 µM)
Outline: as §1

Erlotinib + Navitoclax = compound: C#Cc1cccc(Nc2ncnc3cc(OCCOC)c(OCCOC)cc23)c1 [Erlotinib] + CC1(C)CCC(c2ccc(Cl)cc2)=C(CN2CCN(c3ccc(C(=O)NS(=O)(=O)c4ccc(N[C@H](CCN5CCOCC5)CSc5ccccc5)c(S(=O)(=O)C(F)(F)F)c4)cc3)CC2)C1 [Navitoclax] (partner 0.5 µM)
Outline: as §1

AT9283 + Phenformin = compound: O=C(Nc1c[nH]nc1-c1nc2ccc(CN3CCOCC3)cc2[nH]1)NC1CC1 [AT9283] + N=C(N)NC(=N)NCCc1ccccc1 [Phenformin] (partner 250 µM)
Outline: as §1

AT9283 + Crizotinib = compound: O=C(Nc1c[nH]nc1-c1nc2ccc(CN3CCOCC3)cc2[nH]1)NC1CC1 [AT9283] + C[C@@H](Oc1cc(-c2cnn(C3CCNCC3)c2)cnc1N)c1c(Cl)ccc(F)c1Cl [Crizotinib] (partner 1 µM)
Outline: as §1

Row | Cell Line | relative viability (Erlotinib + Foretinib; first compound 0.6325 µM) | relative viability (Erlotinib + Foretinib; first compound 2 µM) | relative viability (AT9283 + Luminespib; first compound 0.003 µM) | relative viability (AT9283 + Luminespib; first compound 0.03 µM) | relative viability (AT9283 + Luminespib; first compound 0.09487 µM) | relative viability (AT9283 + Luminespib; first compound 0.3 µM) | relative viability (Erlotinib + Navitoclax; first compound 0.02 µM) | relative viability (Erlotinib + Navitoclax; first compound 0.2 µM) | relative viability (Erlotinib + Navitoclax; first compound 0.6325 µM) | relative viability (Erlotinib + Navitoclax; first compound 2 µM) | relative viability (AT9283 + Phenformin; first compound 0.003 µM) | relative viability (AT9283 + Phenformin; first compound 0.03 µM) | relative viability (AT9283 + Phenformin; first compound 0.09487 µM) | relative viability (AT9283 + Phenformin; first compound 0.3 µM) | relative viability (AT9283 + Crizotinib; first compound 0.003 µM) | relative viability (AT9283 + Crizotinib; first compound 0.03 µM) | relative viability (AT9283 + Crizotinib; first compound 0.09487 µM) | relative viability (AT9283 + Crizotinib; first compound 0.3 µM) | relative viability (Erlotinib + Foretinib; first compound 0.02 µM) | relative viability (Erlotinib + Foretinib; first compound 0.2 µM)
1 | 201T | 1.17 | 0.888 | 0.964 | 1 | 0.486 | 0.378 | 1.22 | 1.2 | 1.2 | 1.17 | 0.445 | 0.419 | 0.345 | 0.285 | 0.996 | 1.02 | 0.478 | 0.468 | – | –
2 | A549 | 0.902 | 0.786 | – | – | – | – | 1.1 | 1.26 | 1.33 | 1.06 | 0.284 | 0.0777 | 0.0526 | 0.0427 | 0.717 | 0.0751 | 0.0711 | 0.0659 | 0.795 | 0.947
3 | A-427 | 1.15 | 1.02 | 0.822 | 0.486 | 0.319 | 0.176 | 0.946 | 0.99 | 0.978 | 0.997 | 0.334 | 0.178 | 0.133 | 0.145 | 0.851 | 0.482 | 0.173 | 0.178 | 1.17 | 1.01
4 | ABC-1 | 1.06 | 0.818 | 0.579 | 0.246 | 0.275 | 0.189 | – | – | – | – | 0.231 | 0.159 | 0.233 | 0.192 | 1.03 | 0.238 | 0.182 | 0.193 | 1.03 | 0.547
5 | BEN | 1 | 0.872 | 0.28 | 0.336 | 0.198 | 0.107 | 0.0747 | 0.0625 | 0.0619 | 0.0646 | 0.259 | 0.253 | 0.256 | 0.176 | 0.818 | 0.663 | 0.207 | 0.236 | 0.679 | 0.663
6 | CAL-12T | 0.513 | 0.484 | 0.149 | 0.548 | 0.627 | 0.18 | 1.35 | 1.31 | 0.614 | 0.546 | 0.607 | 0.345 | 0.267 | 0.18 | 0.642 | 0.293 | 0.276 | 0.232 | 1.04 | 1.04
7 | COR-L23 | 1.18 | 0.928 | 0.73 | 0.27 | 0.151 | 0.165 | 1.16 | 1.04 | 1.08 | 1 | 0.45 | 0.221 | 0.128 | 0.12 | 0.616 | 0.185 | 0.118 | 0.158 | 1.11 | 0.947
